The target in one assay is PLK1 (Homo sapiens, UniProt P53350). Briefly: PLK1 biochemical inhibition.
The next assay concerns the target T1, Pim-1 (Homo sapiens, UniProt P11309).
T1 construct: His6-labelled recombinant full-length human Pim-1, Pim-2 or Pim-3 protein; His6; made in house
Nature of the assay: TR-FRET assay, Pim-1 kinase (phosphorylation of Bad Ser112). Format: biochemical. Conditions: TR-FRET; ATP 40 μM; read-out: IC50 Pim1. The method, boiled down:
(§1)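 For each of Pim-1, Pim-2 and Pim-3 (His6-tagged full-length human), compounds were titrated over 10 concentrations in duplicate, typically from 30 μM, with ATP at 40 μM, equal to apparent KM. Bad Ser112 phosphorylation was read as the 665/615 nm TR-FRET ratio and IC50 fitted by 4-parameter logistic model.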
A general note: In TR-FRET formats the signal depends on donor and acceptor labels being close together.

The target of the next assay is T2, Pim-2 (Homo sapiens, UniProt Q9P1W9).
T2 construct: His6-labelled recombinant full-length human Pim-1, Pim-2 or Pim-3 protein; His6; made in house
T2 sequence (Q9P1W9 whole entry): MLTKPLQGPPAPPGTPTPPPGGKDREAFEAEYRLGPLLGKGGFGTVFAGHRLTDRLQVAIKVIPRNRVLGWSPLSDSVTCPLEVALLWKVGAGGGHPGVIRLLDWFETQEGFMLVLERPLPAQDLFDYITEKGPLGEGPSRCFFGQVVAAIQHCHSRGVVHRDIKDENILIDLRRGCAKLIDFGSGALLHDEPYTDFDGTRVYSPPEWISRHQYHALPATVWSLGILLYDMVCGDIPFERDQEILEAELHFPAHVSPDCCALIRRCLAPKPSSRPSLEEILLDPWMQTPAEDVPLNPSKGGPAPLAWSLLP
Briefly: TR-FRET assay, Pim-2 kinase (phosphorylation of Bad Ser112). Format: biochemical. Conditions: TR-FRET; ATP 40 μM; read-out: IC50 Pim2. In outline: as §1

The next assay concerns the target T3, Pim-3 (Homo sapiens, UniProt Q86V86).
T3 construct: His6-labelled recombinant full-length human Pim-1, Pim-2 or Pim-3 protein; His6; made in house
Briefly: TR-FRET assay, Pim-3 kinase (phosphorylation of Bad Ser112). The conditions noted are these: TR-FRET; ATP 40 μM; read-out: IC50 Pim3. Format: biochemical. In outline:
as §1

The term IC50 denotes the concentration needed to halve the response being measured.

Bounds are passed on as bounds.

PLK1, sequence (P53350 whole entry, species assumed): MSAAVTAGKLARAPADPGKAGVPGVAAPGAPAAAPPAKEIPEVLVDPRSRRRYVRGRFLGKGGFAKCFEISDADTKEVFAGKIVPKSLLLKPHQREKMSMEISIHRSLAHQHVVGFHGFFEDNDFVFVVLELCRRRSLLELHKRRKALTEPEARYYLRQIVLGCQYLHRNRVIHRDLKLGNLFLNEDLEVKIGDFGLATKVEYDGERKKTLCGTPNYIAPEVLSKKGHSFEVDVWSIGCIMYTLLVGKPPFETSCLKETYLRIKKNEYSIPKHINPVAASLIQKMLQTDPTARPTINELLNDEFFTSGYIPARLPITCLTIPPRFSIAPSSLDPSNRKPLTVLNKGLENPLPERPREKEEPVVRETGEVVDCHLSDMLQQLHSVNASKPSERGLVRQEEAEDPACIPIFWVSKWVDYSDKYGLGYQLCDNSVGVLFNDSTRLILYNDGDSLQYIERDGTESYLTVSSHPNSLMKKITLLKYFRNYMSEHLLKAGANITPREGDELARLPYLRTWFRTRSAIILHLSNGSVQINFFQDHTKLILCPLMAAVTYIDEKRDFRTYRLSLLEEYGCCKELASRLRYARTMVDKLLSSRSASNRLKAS
T1 sequence (P11309 whole entry): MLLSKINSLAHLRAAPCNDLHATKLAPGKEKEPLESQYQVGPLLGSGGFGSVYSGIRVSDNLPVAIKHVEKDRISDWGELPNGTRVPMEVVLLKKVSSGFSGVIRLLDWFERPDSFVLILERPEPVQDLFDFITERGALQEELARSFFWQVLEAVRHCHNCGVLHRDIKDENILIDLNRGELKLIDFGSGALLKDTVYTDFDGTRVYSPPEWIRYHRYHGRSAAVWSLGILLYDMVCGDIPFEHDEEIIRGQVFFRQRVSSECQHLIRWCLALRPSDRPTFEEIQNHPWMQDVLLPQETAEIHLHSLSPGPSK

For the molecule `Fc1cnc2[nH]c3cnc(-c4cccnc4)cc3c2c1` [Example 2, 3-fluoro-6-(pyrid-3-yl)-9H-pyrrolo[2,3-b:5,4-c′] dipyridine], the IC50 at PLK1 and on Pim-1 was 0.1 to 1 µM throughout.

In the case of `CCCN(C)C(=O)c1cnc2[nH]c3cnc(-c4cccnc4)cc3c2c1` [Example 6, N-methyl-N-propyl-6-(pyrid-3-yl)-9H-pyrrolo[2,3-b:5,4-c′]dipyridine-3-carboxamide], the IC50 at Pim-2 is 1 to 5 µM; against PLK1 it was more than 5 µM; on Pim-3, 1 to 5 µM; on Pim-1 it was 0.1 to 1 µM.

Turning to `Fc1cnc2[nH]c3cnc(-c4cccnc4)cc3c2c1C1CC1` [Example 32, 4-cyclopropyl-3-fluoro-6-(pyrid-3-yl)-9H-pyrrolo[2,3-b:5,4-c′]dipyridine], the IC50 on Pim-2 lay within 1 to 5 µM; against PLK1 it was 0.001 to 0.1 µM; on Pim-3, 0.001 to 0.1 µM; on Pim-1, 0.001 to 0.1 µM.

With `O=C(c1ccccc1)c1c(F)cnc2[nH]c3cnc(-c4cccnc4)cc3c12` [Example 34, [3-fluoro-6-(pyrid-3-yl)-9H-pyrrolo[2,3-b:5,4-c′]-dipyrid-4-yl](phenyl)-methanone], the IC50 was more than 5 µM at Pim-2, 0.1 to 1 µM on PLK1, 1 to 5 µM on Pim-3 and 0.001 to 0.1 µM on Pim-1.

`O=C(c1c(F)cnc2[nH]c3cnc(-c4cccnc4)cc3c12)N1CCOCC1` [Example 36, [3-fluoro-6-(pyrid-3-yl)-9H-pyrrolo[2,3-b:5,4-c′]-dipyrid-4-yl](morpholin-4-yl)methanone]: the IC50 at Pim-2 was more than 5 µM; at PLK1, 1 to 5 µM; at Pim-3 it was 1 to 5 µM; on Pim-1 it was 0.1 to 1 µM.

With `c1cnc2[nH]c3cnc(-c4ccoc4)cc3c2c1` [Example 40, 6-furan-3-yl-9H-pyrrolo[2,3-b:5,4-c′]dipyridine], the 50% inhibitory concentration (IC50) at Pim-2 was more than 5 µM; against PLK1 it was more than 5 µM; at Pim-3, 1 to 5 µM; at Pim-1, 0.1 to 1 µM.

`O=S(=O)(CCl)Nc1ccc(-c2c(F)cnc3[nH]c4cnc(-c5cccnc5)cc4c23)cc1` [Example 45, 1-chloro-N-{4-[3-fluoro-6-(pyrid-3-yl)-9H-pyrrolo[2,3-b:5,4-c′]dipyrid-4-yl]-phenyl}-methanesulfonamide]: the half-inhibitory concentration (IC50) on Pim-2 fell in the range of 1 to 5 µM; against PLK1, 0.001 to 0.1 µM; at Pim-3, 0.001 to 0.1 µM; at Pim-1, 0.001 to 0.1 µM.

On to `COc1cc(-c2c(F)cnc3[nH]c4cnc(-c5cccnc5)cc4c23)ccc1NS(C)(=O)=O` [Example 47, N-{-4-[3-fluoro-6-(pyrid-3-yl)-9H-pyrrolo[2,3-b:5,4-c′]dipyrid-4-yl]-2-methoxyphenyl}-methanesulfonamide], for which the IC50 at Pim-2 lay in the range of 1 to 5 µM; on PLK1, 0.1 to 1 µM; at Pim-3, 0.001 to 0.1 µM; on Pim-1 it was 0.001 to 0.1 µM.

With `CN(c1ccc(-c2c(F)cnc3[nH]c4cnc(-c5cccnc5)cc4c23)cc1)S(C)(=O)=O` [Example 48, N-{-4-[3-fluoro-6-(pyrid-3-yl)-9H-pyrrolo[2,3-b:5,4-c′]dipyrid-4-yl]-phenyl}-N-methyl-methanesulfonamide], the IC50 at Pim-2 lay in the range of 0.1 to 1 µM; on PLK1 it was 0.1 to 1 µM; on Pim-3, 0.001 to 0.1 µM; at Pim-1, 0.001 to 0.1 µM.

Consider `CS(=O)(=O)NCc1cccc(-c2c(F)cnc3[nH]c4cnc(-c5cccnc5)cc4c23)c1` [Example 62, N-{3-[3-fluoro-6-(pyrid-3-yl)-9H-pyrrolo[2,3-b:5,4-c′]-dipyrid-4-yl]benzyl}-methanesulfonamide], for which the IC50 at Pim-2 fell in the range of 1 to 5 µM; on PLK1 it was 0.001 to 0.1 µM; at Pim-3 it was 0.001 to 0.1 µM; on Pim-1, 0.001 to 0.1 µM.

On to `COc1ccccc1-c1c(F)cnc2[nH]c3cnc(-c4cccnc4)cc3c12` [Example 63, 3-fluoro-4-(2-methoxyphenyl)-6-(pyrid-3-yl)-9H-pyrrolo[2,3-b:5,4-c′]-dipyridine], for which the IC50 at Pim-2 is more than 5 µM; at PLK1, 0.001 to 0.1 µM; on Pim-3, 0.1 to 1 µM; on Pim-1 it was 0.001 to 0.1 µM.

For the molecule `CS(=O)(=O)NCc1ccc(-c2c(F)cnc3[nH]c4cnc(-c5cccnc5)cc4c23)cc1` [Example 66, N-{4-[3-fluoro-6-(pyrid-3-yl)-9H-pynolo[2,3-b:5,4-c′]-dipyrid-4-yl]benzyl}-methanesulfonamide], the IC50 fell in the range of 0.1 to 1 µM at Pim-2, 0.001 to 0.1 µM at PLK1, 0.001 to 0.1 µM on Pim-3 and 0.001 to 0.1 µM at Pim-1.

For `CCCN(CCC)CCCN1CCN(c2c(F)cnc3[nH]c4cnc(-c5cccnc5)cc4c23)CC1` [Example 88, 3-{4-[3-fluoro-6-(pyrid-3-yl)-9H-pyrrolo[2,3-b:5,4-c′]dipyrid-4-yl]piperazin-1-yl}-N,N-dipropylpropan-1-amine], the IC50 at Pim-2 was in the range of 0.1 to 1 µM; at PLK1, 1 to 5 µM; on Pim-3, 0.001 to 0.1 µM; at Pim-1, 0.001 to 0.1 µM.

Regarding `CCN(CC)CCn1nc(C)c(-c2cnc3[nH]c4cnc(-c5cccnc5)cc4c3c2)c1C` [Example 125, 2-{3,5-dimethyl-4-[6-(pyrid-3-yl)-9H-pyrrolo[2,3-b:5,4-c′]dipyrid-3-yl]-1H-pyrazol-1-yl}-N,N-diethyl-ethanamine], the IC50 lay within 1 to 5 µM against PLK1, 0.001 to 0.1 µM at Pim-3 and 0.001 to 0.1 µM at Pim-1.

On to `Cc1cc(N2CCNCC2)ncc1-c1cnc2[nH]c3cnc(-c4cccnc4)cc3c2c1` [Example 157, 3-[4-methyl-6-(piperazin-1-yl)pyrid-3-yl]-6-(pyrid-3-yl)-9H-pyrrolo[2,3-b:5,4-c′]-dipyridine], for which the IC50 fell in the range of 0.1 to 1 µM at Pim-2, 0.001 to 0.1 µM at Pim-3 and 0.001 to 0.1 µM at Pim-1.

`c1cncc(-c2cc3c(cn2)[nH]c2ncc(-c4ccc(N5CCNCC5)nc4)cc23)c1` [Example 158, 3-[6-(piperazin-1-yl)pyrid-3-yl]-6-(pyrid-3-yl)-9H-pyrrolo[2,3-b:5,4-c′]dipyridine]: the half-inhibitory concentration (IC50) on Pim-2 lay in the range of 0.1 to 1 µM; on Pim-3, 0.001 to 0.1 µM; at Pim-1 it was 0.001 to 0.1 µM.

Consider `COc1cncc(-c2cc3c(cn2)[nH]c2ncc(F)cc23)c1` [Example 159, 3-fluoro-6-(5-methoxypyrid-3-yl)-9H-pyrrolo[2,3-b:5,4-c′]dipyridine], for which the IC50 at Pim-2 was more than 5 µM; on Pim-3, 1 to 5 µM; on Pim-1 it was 1 to 5 µM.

`COc1ccncc1-c1cc2c(cn1)[nH]c1ncc(F)cc12` [Example 160, 3-fluoro-6-(4-methoxypyrid-3-yl)-9H-pyrrolo[2,3-b:5,4-c′]dipyridine]: the IC50 on Pim-2 was more than 5 µM; at Pim-3 it was 1 to 5 µM; at Pim-1 it was 0.1 to 1 µM.

Regarding `CSc1cncc(-c2cc3c(cn2)[nH]c2ncc(F)cc23)c1` [Example 161, 3-fluoro-6-[5-(methylsulfanyl)pyrid-3-yl]-9H-pyrrolo[2,3-b:5,4-c′]dipyridine], the IC50 is more than 5 µM at Pim-2, 0.1 to 1 µM at Pim-3 and 0.1 to 1 µM on Pim-1.

As for `Fc1cnc2[nH]c3cnc(-c4ccsc4)cc3c2c1` [Example 162, 3-fluoro-6-(thiophen-3-yl)-9H-pyrrolo[2,3-b:5,4-c′]dipyridine], the IC50 was 1 to 5 µM against PLK1, more than 5 µM on Pim-3 and more than 5 µM on Pim-1.

For the molecule `CCN(CC)CCCn1cc(-c2cc3c(cn2)[nH]c2ncc(OC)cc23)cn1` [Example 166, N,N-diethyl-3-[4-(3-methoxy-9H-pyrrolo[2,3-b:5,4-c′]dipyrid-6-yl)-1H-pyrazol-1-yl]-propan-1-amine], the IC50 at Pim-2 was more than 5 µM; on Pim-3 it was 1 to 5 µM; at Pim-1, 0.1 to 1 µM.

Take `COc1cnc2[nH]c3cnc(-c4cnn(CCCCCN)c4)cc3c2c1` [Example 168, 5-[4-(3-methoxy-9H-pyrrolo[2,3-b:5,4-c′]dipyrid-6-yl)-1H-pyrazol-1-yl]pentan-1-amine]: the figures for the half-maximal inhibitory concentration (IC50) at Pim-2, on Pim-3 and at Pim-1 were more than 5 µM, 0.1 to 1 µM and 0.1 to 1 µM, respectively.

With `COc1cnc2[nH]c3cnc(-c4cnn(CCC5CCCCN5C)c4)cc3c2c1` (centres unmarked) [Example 169, 3-methoxy-6-{1-[2-(1-methylpiperid-2-yl)ethyl]-1H-pyrazol-4-yl}-9H-pyrrolo[2,3-b:5,4-c′]dipyridine], the IC50 at Pim-2 is more than 5 µM; at Pim-3, 0.1 to 1 µM; on Pim-1, 0.1 to 1 µM.

Regarding `C=CCn1cc(-c2cc3c(cn2)[nH]c2nccc(-c4ccc(C(=O)OC)cc4)c23)cn1` [Example 170, methyl 4-{6-[1-(prop-2-en-1-yl)-1H-pyrazol-4-yl]-9H-pyrrolo[2,3-b:5,4-c′]dipyrid-4-yl}benzoate], the IC50 was 0.1 to 1 µM at Pim-2, 0.1 to 1 µM on Pim-3 and 0.001 to 0.1 µM on Pim-1.

With `Cn1cc(-c2cc3c(cn2)[nH]c2ncc(F)c(-c4ccc(NS(C)(=O)=O)cc4)c23)cn1` [Example 171, N-{-4-[3-fluoro-6-(1-methyl-1H-pyrazol-4-yl)-9H-pyrrolo[2,3-b:5,4-c′]dipyrid-4-yl]-phenyl}methane sulfonamide], the half-maximal inhibitory concentration (IC50) at Pim-2, on Pim-3 and on Pim-1 was 0.001 to 0.1 µM throughout.

Turning to `O=C(O)c1cc2c(cn1)[nH]c1ncccc12` [Example 172, 9H-pyrrolo[2,3-b:5,4-c′]dipyridine-6-carboxylic acid], the half-inhibitory concentration (IC50) on Pim-2, against PLK1 and at Pim-1 was more than 5 µM throughout.

(Values after patent US20110178053A1, “AZACARBOLINE DERIVATIVES, PREPARATION METHOD THEREOF AND THERAPEUTIC USE OF SAME” (SANOFI-AVENTIS, priority 2008, published 2011).)
